{"source": "patent EP0226985A2", "about": "“Method and reagent for determining testosterone as well as a monoclonal antibody suitable for this” (BOEHRINGER MANNHEIM GMBH, priority 1985, dated 1987)", "key": {"[1]": {"system": "monoklonaler Antikörper MAK 160 (von Klon 160, ECACC 85 12 1701) gegen Testosteron", "test": "Cross-reaction with other steroids, competitive ELISA on plates coated with Testosteron-3-carboxymethyloxim-RSA", "type": "binding, Maus", "conditions": "calculated from C = antigen concentration needed to reach 50 % of the maximum signal, relative to Testosteron", "procedure": "(§1) Um die Anwesenheit und Spezifität von Antikörpern gegen Testosteron im Serum immunisierter Mäuse oder in dem Kulturüberstand der Hybridzellen oder in Ascites zu erkennen, wird ein ELISA-Verfahren als Testprinzip verwendet: Mikrotiterplatten werden mit 1 /ug Testosteron-3-carboxymethyloxim-RSA/ml Beschichtungspuffer (0,2 M Natriumcarbonat/-Bicarbonat, pH 9,3-9,5) bei 37° C eine Stunde lang beschichtet. Es wird 10 Minuten mit 0,9 % Natriumchloridlösung und 1 % Albuminlösung nachbehandelt. Anschließend wird mit 0,9 % Natriumchloridlösung gewaschen. Danach wird bei 37° C eine Stunde mit 100 /ul Probe inkubiert und erneut mit 0,9 % Natriumchloridlösung gewaschen. Um eine mögliche Kreuzreaktion mit anderen Steroiden zu prüfen, werden der Probelösung 100 µg - 1 /ug/ml des zu prüfenden Steroids zugesetzt. Eine Erniedrigung des Meßsignals in Gegenwart anderer Steroide bedeutet Kreuzreaktion. Es folgt eine weitere Inkubation (eine Stunde, 37° C) mit 450 mU/ml eines Schaf-Fabanti-- Maus-Fcγ-Peroxidase-Konjugats. Nach einem erneuten Waschschritt mit 0,9 % Natriumchlorid wird die Peroxidaseaktivität in üblicher Weise bestimmt (beispielsweise mit ABTS, 30 Minuten bei Raumtemperatur, abgelesen wird die Extinktionsdifferenz, Δ mE, bei 405 nm).\n(§2) Der Test wird, wie in Beispiel 2 beschrieben, durchgeführt. […]"}, "[2]": {"system": "monoklonaler Antikörper MAK 97 (von Klon 97, ECACC 85 12 1702) gegen Testosteron", "test": "Cross-reaction with other steroids, competitive ELISA on plates coated with Testosteron-3-carboxymethyloxim-RSA", "type": "binding, Maus", "conditions": "calculated from C = antigen concentration needed to reach 50 % of the maximum signal, relative to Testosteron", "procedure": "as §1, §2"}}}
{"smiles": "C[C@]12CCC(=O)C[C@@H]1CC[C@@H]1[C@@H]2CC[C@]2(C)[C@@H](O)CC[C@@H]12", "note": "[5α-Dihydrotestosteron]", "values": [{"measurement": "Kreuzreaktion in % mit", "setting": "[1]", "result": 4, "unit": "%"}, {"measurement": "Kreuzreaktion in % mit", "setting": "[2]", "result": 5, "unit": "%"}]}
